From patent US7141583B2, “Oxazolidinone derivatives with antibiotic activity” (AstraZeneca AB, priority 2000, dated 2006)
Values after ≈ are worked out from the molar mass of the structure shown.

How the values were obtained:
[1] = test system: Enterococcus faecalis; assay: MIC by agar-dilution, Enterococcus faecalis; assay type: cell-based; conditions: agar with 5% defibrinated horse blood, 5% carbon dioxide, 48 hours
Experimental: (§1) The following results were obtained on a standard in-vitro test system. The activity is described in terms of the minimum inhibitory concentration (MIC) determined by the agar-dilution technique with an inoculum size of 10^4 CFU/spot. Typically, compounds are active in the range 0.01 to 256 μg/ml. Streptococci and enterococci were tested on agar supplemented with 5% defibrinated horse blood, an inoculum of 10^4 CFU/spot and an incubation temperature of 37° C. in an atmosphere of 5% carbon dioxide for 48 hours—blood is required for the growth of some of the test organisms. Fastidious Gram negative organisms were tested in Mueller-Hinton broth, supplemented with hemin and NAD, grown aerobically for 24 hours at 37° C., and with an innoculum of 5×10^4 CFU/well.

[2] = test system: Coagulase Negative Staphylococci MS (methicillin sensitive); assay: MIC by agar-dilution, Coagulase Negative Staphylococci MS; assay type: cell-based; conditions: 37° C., 24 hours
Experimental: (§2) The following results were obtained on a standard in-vitro test system. The activity is described in terms of the minimum inhibitory concentration (MIC) determined by the agar-dilution technique with an inoculum size of 10^4 CFU/spot. Typically, compounds are active in the range 0.01 to 256 μg/ml.
(§3) Staphylococci were tested on agar, using an inoculum of 10^4 CFU/spot and an incubation temperature of 37° C. for 24 hours—standard test conditions for the expression of methicillin resistance.

[3] = test system: Bacillus subtilis; assay: MIC by agar-dilution, Bacillus subtilis; assay type: cell-based
Experimental: as §2

[4] = test system: Coagulase Negative Staphylococci MR (methicillin resistant); assay: MIC by agar-dilution, Coagulase Negative Staphylococci MR; assay type: cell-based; conditions: 37° C., 24 hours
Experimental: as §2, §3

[5] = test system: Haemophilus influenzae ARC446; assay: MIC, Haemophilus influenzae ARC446 (Mueller-Hinton broth); assay type: cell-based; conditions: Mueller-Hinton broth with hemin and NAD, 24 hours, 37° C.
Experimental: as §1

[6] = test system: Moraxella catarrhalis ARC445; assay: MIC, Moraxella catarrhalis ARC445 (Mueller-Hinton broth); assay type: cell-based; conditions: Mueller-Hinton broth with hemin and NAD, 24 hours, 37° C.
Experimental: as §1

[7] = test system: Staphylococcus aureus Oxford; assay: MIC by agar-dilution, Staphylococcus aureus Oxford; assay type: cell-based; conditions: 37° C., 24 hours
Experimental: as §2, §3

[8] = test system: Staphylococcus aureus Novb. Res (Novobiocin resistant); assay: MIC by agar-dilution, Staphylococcus aureus Novb. Res; assay type: cell-based; conditions: 37° C., 24 hours
Experimental: as §2, §3

[9] = test system: Streptococcus pyogenes C203; assay: MIC by agar-dilution, Streptococcus pyogenes C203; assay type: cell-based; conditions: agar with 5% defibrinated horse blood, 5% carbon dioxide, 48 hours
Experimental: as §1

[10] = test system: Staphylococcus aureus MRQR (methicillin and quinolone resistant); assay: MIC by agar-dilution, Staphylococcus aureus MRQR; assay type: cell-based; conditions: 37° C., 24 hours
Experimental: as §2, §3

| Structure (SMILES) | MIC [1] | MIC [2] | MIC [3] | MIC [4] | MIC [5] | MIC [6] | MIC [7] | MIC [8] | MIC [9] | MIC [10] | melting point |
| --- | --- | --- | --- | --- | --- | --- | --- | --- | --- | --- | --- |
| O=C1O[C@@H](Cn2ccnn2)CN1c1cc(F)c(C2=CCS(=O)(=O)CC2)c(F)c1 [Example 44a, (5R)-3-(3,5-Difluoro-4-(3,6-dihydro-1,1-dioxo-2H-thiopyran-4-yl)phenyl)-5-(1,2,3-triazol-1-ylmethyl)oxazolidin-2-one] | 0.25 µg/mL (≈ 0.609 µM) | 0.06 µg/mL (≈ 0.146 µM) | 0.25 µg/mL (≈ 0.609 µM) | 0.13 µg/mL (≈ 0.317 µM) | 2 µg/mL (≈ 4.87 µM) | 2 µg/mL (≈ 4.87 µM) | 0.125 µg/mL (≈ 0.305 µM) | 0.25 µg/mL (≈ 0.609 µM) | 0.25 µg/mL (≈ 0.609 µM) | 0.25 µg/mL (≈ 0.609 µM) |  |
| CSc1ccc(N2C[C@H](Cn3cccn3)OC2=O)cc1 [Example 43, (5R)-3-(4-Methylthiophenyl)-5-(pyrazol-1-ylmethyl)oxazolidin-2-one] |  |  |  |  |  |  |  |  |  |  | 72 to 73 °C |
| CC(C)(C)c1ccc(N2C[C@H](Cn3ccnn3)OC2=O)cc1 [Example 41, (5R)-3-(4-t-Butylphenyl)-5-(1,2,3-triazol-1-ylmethyl)oxazolidin-2-one] |  |  |  |  |  |  |  |  |  |  | 140 to 142 °C |
